Results: patent US20030171377A1, “Antidiabetic agents” (priority 2001, published 2003)

Biological target: T1, PPAR gamma (Mus musculus, UniProt P37238)
T1 construct: expressed in transfected cells; host or cells: HepG2
T1 sequence (P37238 1-505): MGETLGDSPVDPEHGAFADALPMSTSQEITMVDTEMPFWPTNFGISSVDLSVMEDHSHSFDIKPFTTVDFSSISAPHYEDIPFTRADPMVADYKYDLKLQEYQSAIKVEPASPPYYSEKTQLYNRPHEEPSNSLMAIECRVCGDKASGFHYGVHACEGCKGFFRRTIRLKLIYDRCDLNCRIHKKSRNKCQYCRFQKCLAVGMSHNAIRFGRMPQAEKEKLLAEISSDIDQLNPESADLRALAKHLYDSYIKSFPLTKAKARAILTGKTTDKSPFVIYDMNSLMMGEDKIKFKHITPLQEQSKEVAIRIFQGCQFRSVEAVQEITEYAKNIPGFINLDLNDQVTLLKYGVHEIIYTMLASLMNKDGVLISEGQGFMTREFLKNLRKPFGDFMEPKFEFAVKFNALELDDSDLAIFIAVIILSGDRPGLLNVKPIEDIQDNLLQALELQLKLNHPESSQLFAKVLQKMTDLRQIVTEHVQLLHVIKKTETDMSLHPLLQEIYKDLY
Experiment: HepG2-mGAMMA assay (PPAR gamma)
Assay type: cell-based
Details: HepG2 cells

CN(CCOc1ccc(CC2SC(=O)NC2=O)cc1)c1ccccn1 (stereo not shown) [Rosiglitazone]
HepG2-mGamma Max. Res. % Rosi.: 100.0 % Rosi.
